According to patent publication US10125453B2, “Antimicrobial textile products and method of obtaining thereof” (YEDITEPE ÜNIVERSITESI, priority 2013, dated 2018):

What was measured:
Format in all cases: cell-based
Design in all cases: key: +: inhibition zones against the tested microorganisms were observed; −: inhibition zones were not detected
[1] = test system: Candida spp.; experiment: standard NCCLS disc diffusion method, Candida spp.; conditions: 100 u/disc, SDA, 36±1° C., 48 hours
Protocol: (§1) Antimicrobial properties of the textile products loaded with impregnation solution were examined by using standard NCCLS disc diffusion method (Lalitha, 2005). Briefly, the 100 μl solution including 10^8 cfu/ml bacteria, 10^6 cfu/ml yeast, and 10^4 spor/ml fungus was prepared with new cultures and inoculated with spreading method on Trypticase soy agar (TSA), Sabouraud Dextrose Agar (SDA), and Potato Dextrose Agar (PDA), respectively. The sections of approximately 1×1 cm, which were cut out from the textile products loaded with the impregnation solution comprising the stated concentrations of triclosan, chlorhexidine and disodium octaborate pentahydrate, were placed on inoculated petri dishes. Empty textile products which were not loaded with impregnation solution were used as negative control. As positive control, Ofloxacin (5 μg/disc) was used for bacteria and Nystatin (100 u/disc) was used for yeasts and fungi. The petri dishes, which were inoculated and on which textile products were placed, were kept at 36±1° C. for bacteria for 24 hours and 48 hours for yeasts and at 25±1° C. for fungi for 72 hours. Antimicrobial activity against microorganisms tested in standard disc diffusion method was assessed by measuring the inhibition zone. All tests were repeated at least twice.

[2] = test system: Aspergillus spp.; experiment: standard NCCLS disc diffusion method, Aspergillus spp.; conditions: 100 u/disc, PDA, 25±1° C., 72 hours
Protocol: as §1

[3] = test system: Penicillium spp.; experiment: standard NCCLS disc diffusion method, Penicillium spp.; conditions: 100 u/disc, PDA, 25±1° C., 72 hours
Protocol: as §1

[4] = test system: Escherichia coli; experiment: standard NCCLS disc diffusion method, Escherichia coli; conditions: TSA, 36±1° C., 24 hours
Protocol: as §1, with “As positive control, Ofloxacin (5 μg/disc) was used for bacteria and Nystatin (100 u/disc) was used for yeasts and fungi.” left out

[5] = test system: Staphylococcus aureus; experiment: standard NCCLS disc diffusion method, Staphylococcus aureus; conditions: 10 μg/disc, TSA, 36±1° C., 24 hours
Protocol: as §1, with “As positive control, Ofloxacin (5 μg/disc) was used for bacteria and Nystatin (100 u/disc) was used for yeasts and fungi.” left out

[6] = test system: MRSA; experiment: standard NCCLS disc diffusion method, MRSA; conditions: TSA, 36±1° C., 24 hours
Protocol: as §1, with “As positive control, Ofloxacin (5 μg/disc) was used for bacteria and Nystatin (100 u/disc) was used for yeasts and fungi.” left out

[7] = test system: Pseudomonas aeruginosa; experiment: standard NCCLS disc diffusion method, Pseudomonas aeruginosa; conditions: TSA, 36±1° C., 24 hours
Protocol: as §1, with “As positive control, Ofloxacin (5 μg/disc) was used for bacteria and Nystatin (100 u/disc) was used for yeasts and fungi.” left out

Measured: In vitro antimicrobial test result (inhibition zone), positive control

C[C@@H]1[C@H](O)[C@@H](C)/C=C/C=C/CC/C=C/C=C/C=C/C=C/C(O[C@H]2O[C@H](C)[C@@H](O)[C@H](N)[C@@H]2O)CC2O[C@](O)(CC(O)C(O)CCC(O)CC(O)CC(O)CC(=O)O[C@H]1C)CC(O)C2C(=O)O (stereo partly shown) [Nystatin]
+: [1] | [2] | [3]

CC1COc2c(N3CCN(C)CC3)c(F)cc3c(=O)c(C(=O)O)cn1c23 (stereo not shown) [Ofloxacin]
+: [4] | [5] | [6] | [7]
